Experimental data as given in PubChem BioAssay AID220 (DTP/NCI, 2004).
Where “and” joins values, the source holds several entries; their conditions need not be identical. Equal values may be shown once. Records with an inconclusive call do not appear.

System: CD8F1 mice, subcutaneous mammary adenocarcinoma, T/C%
Assay: NCI In Vivo Anticancer Drug Screen. Data for tumor model Mammary Adenocarcinoma CD8F1 (subcutaneous) in CD8F1
Conditions: higher = larger tumour
Outline: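 Ratio of treated to vehicle-control outcome, based on either survival or tumor size, in mice bearing transplantable tumors given the test compound.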

[1] = endpoint: median tumor weight (est.), dose: 25.0 mg/kg/injection, schedule: Q07DX005 (ip), vehicle: saline with Tween-80
[2] = endpoint: median tumor weight (est.), dose: 50.0 mg/kg/injection, schedule: Q07DX005 (ip), vehicle: saline with Tween-80
[3] = endpoint: median tumor weight (est.), dose: 100.0 mg/kg/injection, schedule: Q07DX005 (ip), vehicle: saline with Tween-80
[4] = endpoint: median tumor weight (est.), dose: 200.0 mg/kg/injection, schedule: Q07DX005 (ip), vehicle: saline with Tween-80
[5] = endpoint: median tumor weight (est.), dose: 400.0 mg/kg/injection, schedule: Q07DX005 (ip), vehicle: saline with Tween-80

Cc1cc2nc3[nH]c4ccccc4c3nc2cc1C
T/C (endpoint: median tumor weight (est.), dose: 12.5 mg/kg/injection, schedule: Q07DX005 (ip), vehicle: suspension in saline): 88 % of control
T/C (endpoint: median tumor weight (est.), dose: 25.0 mg/kg/injection, schedule: Q07DX005 (ip), vehicle: suspension in saline): 52 % of control
T/C (endpoint: median tumor weight (est.), dose: 50.0 mg/kg/injection, schedule: Q07DX005 (ip), vehicle: suspension in saline): 73 % of control
T/C (endpoint: median tumor weight (est.), dose: 100.0 mg/kg/injection, schedule: Q07DX005 (ip), vehicle: suspension in saline): 81 % of control
T/C (endpoint: median tumor weight (est.), dose: 200.0 mg/kg/injection, schedule: Q07DX005 (ip), vehicle: suspension in saline): 88 % of control
T/C (endpoint: median tumor weight (est.), dose: 400.0 mg/kg/injection, schedule: Q07DX005 (ip), vehicle: suspension in saline): 100 % of control

COc1ccc(Cl)[n+]([O-])n1
T/C (endpoint: median tumor weight change, dose: 125.0 mg/kg/injection, schedule: Q01DX001 (ip), vehicle: Klucel (hydroxypropylcellulose) (HPC)): 79 % of control

Nc1ccc(S(=O)(=O)Nc2cnc3c(Cl)cccc3n2)cc1
T/C (endpoint: median tumor weight change, dose: 125.0 mg/kg/injection, schedule: Q01DX001 (ip), vehicle: DMSO): 96 % of control
T/C (endpoint: median tumor weight change, dose: 500.0 mg/kg/injection, schedule: Q01DX001 (ip), vehicle: DMSO): 102 % of control and 121 % of control
T/C (endpoint: median tumor weight change, dose: 2000.0 mg/kg/injection, schedule: Q01DX001 (ip), vehicle: DMSO): 102 % of control

CCC(=O)O[C@H]1CC[C@H]2[C@@H]3CCC4=CC(=O)CC[C@]4(C)[C@H]3CC[C@]12C
T/C (endpoint: median tumor weight (est.), dose: 160.0 mg/kg/injection, schedule: Q07DX005 (ip), vehicle: Klucel (hydroxypropylcellulose) (HPC)): 99 % of control
T/C (endpoint: median tumor weight (est.), dose: 640.0 mg/kg/injection, schedule: Q07DX005 (ip), vehicle: Klucel (hydroxypropylcellulose) (HPC)): 48 % of control

O=C1NC(=O)NC(C(=O)O)N1
T/C (endpoint: median tumor weight change, dose: 12.0 mg/kg/injection, schedule: Q01DX001 (ip), vehicle: DMSO): 79 % of control
T/C (endpoint: median tumor weight change, dose: 25.0 mg/kg/injection, schedule: Q01DX001 (ip), vehicle: DMSO): 104 % of control
T/C (endpoint: median tumor weight change, dose: 50.0 mg/kg/injection, schedule: Q01DX001 (ip), vehicle: DMSO): 79 % of control
T/C (endpoint: median tumor weight change, dose: 75.0 mg/kg/injection, schedule: Q01DX001 (ip), vehicle: DMSO): 83 % of control
T/C (endpoint: median tumor weight change, dose: 100.0 mg/kg/injection, schedule: Q01DX001 (ip), vehicle: DMSO): 73 % of control
T/C (endpoint: median tumor weight change, dose: 150.0 mg/kg/injection, schedule: Q01DX001 (ip), vehicle: DMSO): 96 % of control
T/C (endpoint: median tumor weight change, dose: 200.0 mg/kg/injection, schedule: Q01DX001 (ip), vehicle: DMSO): 83 % of control
T/C (endpoint: median tumor weight change, dose: 300.0 mg/kg/injection, schedule: Q01DX001 (ip), vehicle: DMSO): 86 % of control
T/C (endpoint: median tumor weight change, dose: 400.0 mg/kg/injection, schedule: Q01DX001 (ip), vehicle: DMSO): 56 % of control
T/C (endpoint: median tumor weight change, dose: 600.0 mg/kg/injection, schedule: Q01DX001 (ip), vehicle: DMSO): 80 % of control

CC(Oc1ccccc1-c1ccccc1)C(=O)N(C)C (stereo unspecified)
T/C (endpoint: median tumor weight change, dose: 125.0 mg/kg/injection, schedule: Q01DX001 (ip), vehicle: saline with Tween-80): 70 % of control
T/C (endpoint: median tumor weight change, dose: 250.0 mg/kg/injection, schedule: Q01DX001 (ip), vehicle: saline with Tween-80): 89 % of control
T/C (endpoint: median tumor weight change, dose: 500.0 mg/kg/injection, schedule: Q01DX001 (ip), vehicle: saline with Tween-80): 95 % of control

CCOC(=O)CNC(=O)CCCCSc1ncnc2nc[nH]c12
T/C (endpoint: mean tumor weight, dose: 20.0 mg/kg/injection, schedule: Q07DX005 (ip), vehicle: saline): 121 % of control
T/C (endpoint: mean tumor weight, dose: 40.0 mg/kg/injection, schedule: Q07DX005 (ip), vehicle: saline): 84 % of control
T/C (endpoint: mean tumor weight, dose: 80.0 mg/kg/injection, schedule: Q07DX005 (ip), vehicle: saline): 48 % of control
T/C (endpoint: mean tumor weight, dose: 160.0 mg/kg/injection, schedule: Q07DX005 (ip), vehicle: saline): 39 % of control
T/C (endpoint: mean tumor weight, dose: 320.0 mg/kg/injection, schedule: Q07DX005 (ip), vehicle: saline): 67 % of control
T/C (endpoint: mean tumor weight, dose: 640.0 mg/kg/injection, schedule: Q07DX005 (ip), vehicle: saline): 45 % of control
T/C (endpoint: median tumor weight (est.), dose: 20.0 mg/kg/injection, schedule: Q07DX004 (ip), vehicle: saline): 78 % of control
T/C (endpoint: median tumor weight (est.), dose: 40.0 mg/kg/injection, schedule: Q07DX004 (ip), vehicle: saline): 63 % of control
T/C (endpoint: median tumor weight (est.), dose: 80.0 mg/kg/injection, schedule: Q07DX004 (ip), vehicle: saline): 40 % of control
T/C (endpoint: median tumor weight (est.), dose: 160.0 mg/kg/injection, schedule: Q07DX004 (ip), vehicle: saline): 97 % of control
T/C (endpoint: median tumor weight (est.), dose: 320.0 mg/kg/injection, schedule: Q07DX004 (ip), vehicle: saline): 109 % of control

CCC(=O)N(C)[C@@H](C)C(=O)O[C@H]1CC(=O)N(C)c2cc(cc(OC)c2Cl)C/C(C)=C/C=C[C@@H](OC)[C@@]2(O)C[C@H](OC(=O)N2)[C@@H](C)[C@@H]2O[C@@]12C
T/C (endpoint: median tumor weight (est.), dose: 7.5 micrograms/kg/injection, schedule: Q07DX005 (ip), vehicle: saline + alcohol): 210 % of control
T/C (endpoint: median tumor weight (est.), dose: 15.0 micrograms/kg/injection, schedule: Q07DX005 (ip), vehicle: saline + alcohol): 112 % of control
T/C (endpoint: median tumor weight (est.), dose: 30.0 micrograms/kg/injection, schedule: Q07DX005 (ip), vehicle: saline + alcohol): 84 % of control
T/C (endpoint: median tumor weight (est.), dose: 60.0 micrograms/kg/injection, schedule: Q07DX005 (ip), vehicle: saline + alcohol): 98 % of control

COc1cc2oc(=O)ccc2cc1[C@@H]1OC(=O)C2(C)O[C@@H]12 (stereo partly specified)
T/C (endpoint: median tumor weight (est.), dose: 0.94 mg/kg/injection, schedule: Q07DX005 (ip), vehicle: water): 174 % of control
T/C (endpoint: median tumor weight (est.), dose: 3.75 mg/kg/injection, schedule: Q07DX005 (ip), vehicle: water): 101 % of control
T/C (endpoint: median tumor weight (est.), dose: 7.5 mg/kg/injection, schedule: Q07DX005 (ip), vehicle: water): 105 % of control
T/C (endpoint: median tumor weight (est.), dose: 15.0 mg/kg/injection, schedule: Q07DX005 (ip), vehicle: water): 124 % of control

COC1=C(OC)C(=O)C(C/C=C(\C)CC/C=C(\C)CC/C=C(\C)CC/C=C(\C)CC/C=C(\C)CC/C=C(\C)CC/C=C(\C)CC/C=C(\C)CC/C=C(\C)CCC=C(C)C)=C(C)C1=O
T/C (endpoint: median tumor weight (est.), dose: 12.5 mg/kg/injection, schedule: Q07DX005 (ip), vehicle: saline with Tween-80): 59 % of control
T/C [1]: 67 % of control
T/C [2]: 47 % of control
T/C [3]: 93 % of control
T/C [4]: 122 % of control
T/C [5]: 76 % of control

O=C(CN1CCOCC1)Nc1nc(-c2ccc(Cl)cc2)cs1
T/C (endpoint: median tumor weight change, dose: 50.0 mg/kg/injection, schedule: Q01DX001 (ip), vehicle: saline with Tween-80): 47 % of control
T/C (endpoint: median tumor weight change, dose: 100.0 mg/kg/injection, schedule: Q01DX001 (ip), vehicle: saline with Tween-80): 20 % of control
T/C (endpoint: median tumor weight change, dose: 200.0 mg/kg/injection, schedule: Q01DX001 (ip), vehicle: saline with Tween-80): 49 % of control
T/C (endpoint: median tumor weight change, dose: 400.0 mg/kg/injection, schedule: Q01DX001 (ip), vehicle: saline with Tween-80): 35 % of control
T/C (endpoint: median tumor weight change, dose: 800.0 mg/kg/injection, schedule: Q01DX001 (ip), vehicle: saline with Tween-80): 28 % of control

COc1cc2c[n+](C)c3c(c2cc1OC)Cc1cc2c(cc1-3)OCO2
T/C (endpoint: median tumor weight change, dose: 62.5 mg/kg/injection, schedule: Q01DX001 (ip), vehicle: suspension in saline): 92 % of control
T/C (endpoint: median tumor weight change, dose: 125.0 mg/kg/injection, schedule: Q01DX001 (ip), vehicle: suspension in saline): 105 % of control

CC(=O)Nc1ccc(O)c(O)c1
T/C [1]: 107 % of control
T/C [2]: 81 % of control
T/C [3]: 79 % of control
T/C [4]: 76 % of control
T/C [5]: 114 % of control
T/C (endpoint: median tumor weight (est.), dose: 800.0 mg/kg/injection, schedule: Q07DX005 (ip), vehicle: saline with Tween-80): 159 % of control

COC(=O)Nc1cccc(-c2nc3ccc(NC(=O)OC)cc3c(=O)n2-c2ccccc2)c1
T/C (endpoint: mean tumor weight, dose: 50.0 mg/kg/injection, schedule: Q07DX006 (ip), vehicle: saline): 180 % of control
T/C (endpoint: mean tumor weight, dose: 100.0 mg/kg/injection, schedule: Q07DX006 (ip), vehicle: saline): 167 % of control
T/C (endpoint: median tumor weight (est.), dose: 12.5 mg/kg/injection, schedule: Q04DX005 (ip), vehicle: saline): 101 % of control
T/C (endpoint: median tumor weight (est.), dose: 12.5 mg/kg/injection, schedule: Q07DX004 (ip), vehicle: saline): 79 % of control
T/C (endpoint: median tumor weight (est.), dose: 25.0 mg/kg/injection, schedule: Q07DX004 (ip), vehicle: saline): 103 % of control
T/C (endpoint: median tumor weight (est.), dose: 50.0 mg/kg/injection, schedule: Q04DX005 (ip), vehicle: saline): 109 % of control
T/C (endpoint: median tumor weight (est.), dose: 50.0 mg/kg/injection, schedule: Q07DX004 (ip), vehicle: saline): 88 % of control
T/C (endpoint: median tumor weight (est.), dose: 200.0 mg/kg/injection, schedule: Q04DX005 (ip), vehicle: saline): 88 % of control
T/C (endpoint: median tumor weight (est.), dose: 200.0 mg/kg/injection, schedule: Q07DX004 (ip), vehicle: saline): 113 % of control
T/C (endpoint: median tumor weight (est.), dose: 400.0 mg/kg/injection, schedule: Q07DX004 (ip), vehicle: saline): 101 % of control

C1CN(P2(N3CC3)=NP(N3CC3)(N3CC3)=NP(N3CC3)(N3CC3)=N2)CCO1 (stereo unspecified)
T/C (endpoint: median tumor weight (est.), dose: 6.25 mg/kg/injection, schedule: Q07DX005 (ip), vehicle: saline): 39 % of control
T/C (endpoint: median tumor weight (est.), dose: 12.5 mg/kg/injection, schedule: Q07DX005 (ip), vehicle: saline): 44 % of control
T/C (endpoint: median tumor weight (est.), dose: 25.0 mg/kg/injection, schedule: Q07DX005 (ip), vehicle: saline): 6 % of control
